Reference: patent publication US10597388B2, “Pyridazinone herbicides” (FMC CORPORATION, priority 2014, dated 2020)

Columns and labels:
Test in all cases: Test D controlled growth environment herbicide test, pre- and postemergence
Assay type in all cases: in vivo
[1] = system: galium (catchweed bedstraw, Galium aparine)
Text: (§1) Seeds of plant species selected from bluegrass (annual bluegrass, Poa annua), blackgrass (Alopecurus myosuroides), Canada thistle (Cirsium arvense), canarygrass (Phalaris minor), chickweed (common chickweed, Stellaria media), geranium, cutleaf (cutleaf geranium, Geranium dissectum), galium (catchweed bedstraw, Galium aparine), bromegrass, downy (downy bromegrass, Bromus tectorum), field poppy (Papaver rhoeas), field violet (Viola arvensis), foxtail, green (green foxtail, Setaria viridis), deadnettle (henbit deadnettle, Lamium amplexicaule), ryegrass, Italian (Italian ryegrass, Lolium multiflorum), kochia (Kochia scoparia), lambsquarters (Chenopodium album), oilseed rape (Brassica napus), pigweed (Amaranthus retroflexus), chamomile (scentless chamomile, Matricaria inodora), Russian thistle (Salsola kali), speedwell (bird's-eye speedwell, Veronica persica), barley, spring (spring barley, Hordeum vulgare), wheat, spring (spring wheat, Triticum aestivum), buckwheat, wild (wild buckwheat, Polygonum convolvulus), mustard, wild (wild mustard, Sinapis arvensis), oat, wild (wild oat, Avena fatua), radish, wild (wild radish, Raphanus raphanistrum), windgrass (Apera spica-venti), barley, winter (winter barley, Hordeum vulgare), and wheat, winter (winter wheat, Triticum aestivum) were planted into a silt loam soil and treated preemergence with test chemicals formulated in a non-phytotoxic solvent mixture which included a surfactant.
(§2) At the same time, these species were planted in pots containing Redi-Earth® planting medium (Scotts Company, 14111 Scottslawn Road, Marysville, Ohio 43041) comprising spaghnum peat moss, vermiculite, wetting agent and starter nutrients and treated with postemergence applications of the test chemicals formulated in the same manner. Plants ranged in height from 2 to 18 cm (1- to 4-leaf stage). Treated plants and controls were maintained in a controlled growth environment for 14 to 21 d after which time all species were compared to controls and visually evaluated. Plant response ratings, summarized in Table D, are based on a scale of 0 to 100 where 0 is no effect and 100 is complete control. A dash (-) response means no test result.

[2] = system: deadnettle (henbit deadnettle, Lamium amplexicaule)
Text: as §1, §2

[3] = system: pigweed (Amaranthus retroflexus)
Text: as §1, §2

[4] = system: oilseed rape (Brassica napus)
Text: as §1, §2

[5] = system: ryegrass, Italian (Italian ryegrass, Lolium multiflorum)
Text: as §1, §2

[6] = system: chamomile (scentless chamomile, Matricaria inodora)
Text: as §1, §2

[7] = system: buckwheat, wild (wild buckwheat, Polygonum convolvulus)
Text: as §1, §2

[8] = system: blackgrass (Alopecurus myosuroides)
Text: as §1, §2

[9] = system: foxtail, green (green foxtail, Setaria viridis)
Text: as §1, §2

[10] = system: windgrass (Apera spica-venti)
Text: as §1, §2

[11] = system: bromegrass, downy (downy bromegrass, Bromus tectorum)
Text: as §1, §2

kochia (Kochia scoparia) = system: kochia (Kochia scoparia)
Text: as §1, §2

[12] = system: speedwell (bird's-eye speedwell, Veronica persica)
Text: as §1, §2

[13] = system: mustard, wild (wild mustard, Sinapis arvensis)
Text: as §1, §2

[14] = Postemergence, 31 g ai/ha, scale 0 to 100 (0 no effect, 100 complete control)
[15] = Postemergence, 125 g ai/ha, visual rating on scale 0 (no effect) to 100 (complete control), 14 to 21 d
[16] = Postemergence, 250 g ai/ha, scale 0 to 100 (0 no effect, 100 complete control)
[17] = Preemergence, 62 g ai/ha, scale 0 to 100 (0 no effect, 100 complete control)
[18] = Preemergence, 125 g ai/ha, scale 0 to 100 (0 no effect, 100 complete control)
[19] = Preemergence, 250 g ai/ha, scale 0 to 100, 0 no effect, 100 complete control
[20] = postemergence, 62 g ai/ha, scale 0 to 100, 0 no effect, 100 complete control

In the case of `Cn1nc(Br)c(O)c(-c2cccc3ccccc23)c1=O` [Compound 20], the “Galium plant response rating” value [1, 14] was 70, the “Plant response rating, Galium” value [1, 15] was 100 and the “Plant response rating, Galium” value [1, 16] was 100. The “Plant response rating (scale of 0 to 100), Galium” value ([1]; Preemergence, 31 g ai/ha) was 10, the “Plant response rating, Galium” value [1, 17] was 30 and the “Plant response rating, Galium” value [1, 18] was 75. The “Plant response rating, Galium” value [1, 19] was 85, the “Plant response rating, Galium” value [1, 20] was 75 and the “Deadnettle plant response rating” value [2, 14] was 25. For the same molecule, the “Plant response rating, Deadnettle” value [2, 15] was 55, the “Plant response rating, Deadnettle” value [2, 16] was 65 and the “Plant response rating (scale of 0 to 100), Deadnettle” value ([2]; Preemergence, 31 g ai/ha) was 0. The “Plant response rating, Deadnettle” value [2, 17] was 0, the “Plant response rating, Deadnettle” value [2, 18] was 10 and the “Plant response rating, Deadnettle” value [2, 19] was 20. The “Plant response rating, Deadnettle” value [2, 20] was 35, the “Pigweed plant response rating” value [3, 14] was 80 and the “Plant response rating, Pigweed” value [3, 15] was 100. For the same molecule, the “Plant response rating, Pigweed” value [3, 16] was 100, the “Plant response rating (scale of 0 to 100), Pigweed” value ([3]; Preemergence, 31 g ai/ha) was 30 and the “Plant response rating, Pigweed” value [3, 17] was 40. For the same molecule, the “Plant response rating, Pigweed” value [3, 18] was 100, the “Plant response rating, Pigweed” value [3, 19] was 100 and the “Plant response rating, Pigweed” value [3, 20] was 100. For the same molecule, the “Oilseed Rape plant response rating” value [4, 14] was 0, the “Plant response rating, Oilseed Rape” value [4, 15] was 5 and the “Plant response rating, Oilseed Rape” value [4, 16] was 5. The “Plant response rating (scale of 0 to 100), Oilseed Rape” value ([4]; Preemergence, 31 g ai/ha) was 0, the “Plant response rating, Oilseed Rape” value [4, 17] was 0 and the “Plant response rating, Oilseed Rape” value [4, 18] was 0. For the same molecule, the “Plant response rating, Oilseed Rape” value [4, 19] was 0, the “Plant response rating, Oilseed Rape” value [4, 20] was 0 and the “Ryegrass, Italian plant response rating” value [5, 14] was 55. The “Plant response rating, Ryegrass, Italian” value [5, 15] was 80, the “Plant response rating, Ryegrass, Italian” value [5, 16] was 90 and the “Plant response rating (scale of 0 to 100), Ryegrass, Italian” value ([5]; Preemergence, 31 g ai/ha) was 90. For the same molecule, the “Plant response rating, Ryegrass, Italian” value [5, 17] was 100, the “Plant response rating, Ryegrass, Italian” value [5, 18] was 100 and the “Plant response rating, Ryegrass, Italian” value [5, 19] was 100. The “Plant response rating, Ryegrass, Italian” value [5, 20] was 70, the “Chamomile plant response rating” value [6, 14] was 70 and the “Plant response rating, Chamomile” value [6, 15] was 100. For the same molecule, the “Plant response rating, Chamomile” value [6, 16] was 100, the “Plant response rating, Chamomile” value [6, 20] was 95 and the “Buckwheat, Wild plant response rating” value [7, 14] was 80. The “Plant response rating, Buckwheat, Wild” value [7, 15] was 100, the “Plant response rating, Buckwheat, Wild” value [7, 16] was 100 and the “Plant response rating (scale of 0 to 100), Buckwheat, Wild” value ([7]; Preemergence, 31 g ai/ha) was 15. For the same molecule, the “Plant response rating, Buckwheat, Wild” value [7, 17] was 20, the “Plant response rating, Buckwheat, Wild” value [7, 18] was 100 and the “Plant response rating, Buckwheat, Wild” value [7, 19] was 100. For the same molecule, the “Plant response rating, Buckwheat, Wild” value [7, 20] was 100, the “Blackgrass plant response rating” value [8, 14] was 15 and the “Plant response rating, Blackgrass” value [8, 15] was 50. For the same molecule, the “Plant response rating, Blackgrass” value [8, 16] was 60, the “Plant response rating (scale of 0 to 100), Blackgrass” value ([8]; Preemergence, 31 g ai/ha) was 20 and the “Plant response rating, Blackgrass” value [8, 17] was 40. For the same molecule, the “Plant response rating, Blackgrass” value [8, 18] was 60, the “Blackgrass plant response rating” value [8, 19] was 75 and the “Plant response rating, Blackgrass” value [8, 20] was 40. The “Foxtail, Green plant response rating” value [9, 14] was 15, the “Plant response rating, Foxtail, Green” value [9, 15] was 40 and the “Plant response rating, Foxtail, Green” value [9, 16] was 70. The “Plant response rating (scale of 0 to 100), Foxtail, Green” value ([9]; Preemergence, 31 g ai/ha) was 25, the “Plant response rating, Foxtail, Green” value [9, 17] was 60 and the “Plant response rating, Foxtail, Green” value [9, 18] was 75. The “Plant response rating, Foxtail, Green” value [9, 19] was 85, the “Plant response rating, Foxtail, Green” value [9, 20] was 35 and the “Windgrass plant response rating” value [10, 14] was 25. For the same molecule, the “Plant response rating, Windgrass” value [10, 15] was 30, the “Plant response rating, Windgrass” value [10, 16] was 40 and the “Plant response rating (scale of 0 to 100), Windgrass” value ([10]; Preemergence, 31 g ai/ha) was 35. The “Plant response rating, Windgrass” value [10, 17] was 40, the “Plant response rating, Windgrass” value [10, 18] was 50 and the “Plant response rating, Windgrass” value [10, 19] was 60. For the same molecule, the “Plant response rating, Windgrass” value [10, 20] was 30, the “Bromegrass, Downy plant response rating” value [11, 14] was 0 and the “Plant response rating, Bromegrass, Downy” value [11, 15] was 10. The “Plant response rating, Bromegrass, Downy” value [11, 16] was 15, the “Plant response rating (scale of 0 to 100), Bromegrass, Downy” value ([11]; Preemergence, 31 g ai/ha) was 15 and the “Plant response rating, Bromegrass, Downy” value [11, 17] was 35. For the same molecule, the “Plant response rating, Bromegrass, Downy” value [11, 18] was 40, the “Plant response rating, Bromegrass, Downy” value [11, 19] was 45 and the “Plant response rating, Bromegrass, Downy” value [11, 20] was 10. The “Kochia plant response rating” value (kochia (Kochia scoparia); [14]) was 35, the “Plant response rating, Kochia” value (kochia (Kochia scoparia); [15]) was 85 and the “Plant response rating, Kochia” value (kochia (Kochia scoparia); [16]) was 100. The “Plant response rating (scale of 0 to 100), Kochia” value (kochia (Kochia scoparia); Preemergence, 31 g ai/ha) was 0, the “Plant response rating, Kochia” value (kochia (Kochia scoparia); [17]) was 25 and the “Plant response rating, Kochia” value (kochia (Kochia scoparia); [18]) was 70. For the same molecule, the “Plant response rating, Kochia” value (kochia (Kochia scoparia); [19]) was 90, the “Plant response rating, Kochia” value (kochia (Kochia scoparia); [20]) was 65 and the “Speedwell plant response rating” value [12, 14] was 5. The “Plant response rating, Speedwell” value [12, 15] was 100, the “Plant response rating, Speedwell” value [12, 16] was 100 and the “Plant response rating (scale of 0 to 100), Speedwell” value ([12]; Preemergence, 31 g ai/ha) was 70. The “Plant response rating, Speedwell” value [12, 17] was 70, the “Plant response rating, Speedwell” value [12, 18] was 70 and the “Plant response rating, Speedwell” value [12, 19] was 90. The “Plant response rating, Speedwell” value [12, 20] was 15, the “Mustard, Wild plant response rating” value [13, 14] was 75 and the “Plant response rating, Mustard, Wild” value [13, 15] was 100. For the same molecule, the “Plant response rating, Mustard, Wild” value [13, 16] was 100, the “Plant response rating (scale of 0 to 100), Mustard, Wild” value ([13]; Preemergence, 31 g ai/ha) was 25 and the “Plant response rating, Mustard, Wild” value [13, 17] was 35. The “Plant response rating, Mustard, Wild” value [13, 18] was 100, the “Plant response rating, Mustard, Wild” value [13, 19] was 100 and the “Plant response rating, Mustard, Wild” value [13, 20] was 100.
